Data published in patent US20180264080A1, “TOPICAL APPLICATIONS OF Kv1.3 CHANNEL BLOCKING PEPTIDES TO TREAT SKIN INFLAMMATION” (KINETA ONE, LLC, priority 2015, published 2018).

Assay: Tissue penetration of topically applied peptide by immunohistochemistry (anti-ShK mAb P3B3) in rat pinna
Format: in vivo
Details: 10 doses, rat pinna sections 48 hours post-challenge (DTH study)
Description: This example describes the method of detection of toxin-based therapeutic peptides of the disclosure, such as ShK-186 (SEQ ID NO:217) or ShK-198 (SEQ ID NO:210) penetration after topical administration.
Materials: All Bond reagents such Bond HIER 1 (Citrate), Bond HIER 2 (EDTA), Bond Primary antibody diluent, Bond dewax solution, Bond Wash solution, Bond Polymer Refine (DAB) detection rack including peroxide block, polymer/hematoxylin, Bond Alcohol and the Leica Bond Automated Immunostainer were purchased from Leica-microsystems.
ShK specific antibody: Hybridoma fusions were performed using the isolated splenocytes from ShK-186 immunized mice and clones producing specific monoclonal antibodies against ShK-186 and ShK-198 were isolated. These cultures were subjected to a second cloning process using the limited dilution method and selected for stable expression of the specific mAb. Stable clones were expanded, tested for antibody specificity to ShK-186 (and ShK parent) by ELISA, and their isotypes were identified using the Roche Isostrips and confirmed by ELISA. For ELISA testing, culture supernatants were diluted from 1:4-1:256 and the titer was determined to be the last dilution 2 standard deviations above background. Clone P3B3-G11-C12 is purified from hybridoma extinction cultures and concentrated to 1 mg/ml. […]

| Substance | Tissue penetration of the peptide into rat pinna (dark staining with ShK specific monoclonal antibody P3B3) (1% solution of ShK-186, topical) | Tissue penetration of the peptide into rat pinna (dark staining with ShK specific monoclonal antibody P3B3) (5% solution of ShK-198, topical) |
| --- | --- | --- |
| (L-PhosphoTyr)-AEEAc-RSCIDTIPKSRCTAFQCKHSMKYRLSFCRKTCGTC-amide [ShK-186] | perfuse and extensive penetration |  |
| (L-Tyr)-AEEAc-RSCIDTIPKSRCTAFQCKHSMKYRLSFCRKTCGTC-amide [ShK-198] |  | perfuse and extensive penetration |
